How the values were obtained:
bedstraw = experiment: Test B pre/postemergence bedstraw; assay type: in vivo, Galium aparine
In short: (§1)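 Test chemicals in a non-phytotoxic solvent mixture with surfactant were sprayed preemergence onto planted seeds and postemergence onto plants 2 to 18 cm tall (1- to 4-leaf stage). After twelve to sixteen days in a greenhouse, injury was visually rated against untreated controls from 0 (no effect) to 10 (complete control).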

crabgrass = experiment: Test B pre/postemergence crabgrass; assay type: in vivo, Digitaria sanguinalis
In short: as §1

bamyardgrass = experiment: Test B flood test barnyardgrass; assay type: in vivo, Echinochloa crus-galli; conditions: for Barnyardgrass plant response rating (0 to 10 scale, 0 is no effect, 10 is complete control): under heading Pre-emergence
In short: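 Flood test on plants grown to the 2-leaf stage; treated plants kept in greenhouse twelve to sixteen days, then visually rated against controls on a 0 (no effect) to 10 (complete control) scale.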

purple nutsedge = experiment: Test B pre/postemergence purple nutsedge; assay type: in vivo, Cyperus rotundus
In short: as §1

[1] = Preemergence, Rate 250 g/ha, scale of 0 to 10 where 0 is no effect and 10 is complete control
[2] = Preemergence, Rate 500 g/ha, scale of 0 to 10 where 0 is no effect and 10 is complete control
[3] = Rate 62 g/ha, Postemergence, scale 0 to 10 (0 no effect, 10 complete control)
[4] = Rate 125 g/ha, Postemergence, scale of 0 to 10 where 0 is no effect and 10 is complete control
[5] = Rate 125 g/ha, Preemergence, scale of 0 to 10 where 0 is no effect and 10 is complete control
[6] = Rate 250 g/ha, Postemergence, scale of 0 to 10 where 0 is no effect and 10 is complete control
[7] = Rate 500 g/ha, Postemergence, scale 0 to 10, 0 no effect, 10 complete control
[8] = Preemergence, Rate 62 g/ha, scale of 0 to 10 where 0 is no effect and 10 is complete control
[9] = Rate 500 g/ha, Pre-emergence, flood test species, scale 0 to 10 (0 no effect, 10 complete control)
[10] = Rate 62 g/ha, Postemergence, scale of 0 to 10 where 0 is no effect and 10 is complete control
[11] = Rate 125 g/ha, Postemergence, scale 0 to 10, 0 is no effect, 10 is complete control
[12] = Postemergence, Rate 250 g/ha, scale 0 to 10
[13] = Postemergence, Rate 500 g/ha, scale of 0 to 10 where 0 is no effect and 10 is complete control
[14] = Preemergence, Rate 62 g/ha, scale 0 to 10 (0 no effect, 10 complete control)
[15] = Preemergence, Rate 125 g/ha, scale of 0 to 10 where 0 is no effect and 10 is complete control
[16] = Preemergence, Rate 250 g/ha, scale 0 to 10, 0 is no effect, 10 is complete control
[17] = Preemergence, Rate 500 g/ha, scale 0 to 10, 0 is no effect, 10 is complete control
[18] = Rate 125 g/ha, flood test species, visual evaluation after twelve to sixteen days
[19] = Rate 250 g/ha, Pre-emergence (flood test species), scale 0 to 10, 0 is no effect, 10 is complete control
[20] = Preemergence, Rate 250 g/ha, scale 0 to 10 (0 no effect, 10 complete control)
[21] = Rate 1000 g/ha, Preemergence, scale 0 to 10 (0 no effect, 10 complete control)
[22] = Postemergence, Rate 125 g/ha, scale of 0 to 10 where 0 is no effect and 10 is complete control
[23] = Postemergence, Rate 1000 g/ha, scale 0 to 10 (0 no effect, 10 complete control)

## Cc1ccccc1-n1c(=O)on(C(=O)N(c2ccc3c(c2)CCC3)C(C)C)c1=O [Compound 278]
bedstraw; [1]
  Bedstraw plant response rating: 0
bedstraw; [2]
  Plant response rating, Bedstraw: 0
bedstraw; [3]
  Bedstraw plant response rating: 0
bedstraw; [4]
  Bedstraw plant response rating: 0
bedstraw; [5]
  Bedstraw plant response rating: 0
bedstraw; [6]
  Plant response rating, Bedstraw: 6
bedstraw; [7]
  Bedstraw plant response rating: 8
crabgrass; [8]
  Crabgrass plant response rating: 0
crabgrass; [1]
  Crabgrass plant response rating: 2
crabgrass; [2]
  Plant response rating, Crabgrass: 4
crabgrass; [3]
  Crabgrass plant response rating: 0
crabgrass; [4]
  Crabgrass plant response rating: 0
crabgrass; [5]
  Crabgrass plant response rating: 1
crabgrass; [6]
  Plant response rating, Crabgrass: 0
crabgrass; [7]
  Crabgrass plant response rating: 0
bamyardgrass; Rate 62 g/ha, headed Pre-emergence (flood test species), scale 0 to 10 (0 no effect, 10 complete control)
  Barnyardgrass plant response rating: 0
bamyardgrass; Rate 125 g/ha, Pre-emergence, flood test species, scale 0 to 10 where 0 is no effect and 10 is complete control
  Barnyardgrass plant response rating: 0
bamyardgrass; Rate 250 g/ha, Pre-emergence, flood-test species, scale 0 to 10, 0 is no effect, 10 is complete control
  Barnyardgrass plant response rating: 0
bamyardgrass; [9]
  Barnyardgrass plant response rating: 0
Purple nutsedge; [1]
  Nutsedge plant response rating: 0
Purple nutsedge; [3]
  Nutsedge plant response rating: 0
Purple nutsedge; [4]
  Nutsedge plant response rating: 0
Purple nutsedge; [5]
  Nutsedge plant response rating: 0
Purple nutsedge; [6]
  Plant response rating, Nutsedge: 0
Purple nutsedge; [7]
  Nutsedge plant response rating: 0

## CC(C)N(C(=O)n1oc(=O)n(CC#N)c1=O)c1ccccc1 [Compound 434]
bedstraw; [10]
  Bedstraw plant response rating: 0
bedstraw; [11]
  Bedstraw plant response rating: 0
crabgrass; [12]
  Crabgrass plant response rating: 1
crabgrass; [13]
  Crabgrass plant response rating: 4
crabgrass; [14]
  Plant response rating, Crabgrass: 0
crabgrass; [15]
  Plant response rating, Crabgrass: 0
crabgrass; [16]
  Crabgrass plant response rating: 0
crabgrass; [17]
  Crabgrass plant response rating: 1
crabgrass; [10]
  Crabgrass plant response rating: 0
crabgrass; [11]
  Crabgrass plant response rating: 0
bamyardgrass; Postemergence block (flood test species), Rate 250 g/ha, scale 0 to 10
  Barnyardgrass plant response rating: 0
bamyardgrass; Postemergence section (flood test species), Rate 500 g/ha, scale of 0 to 10 where 0 is no effect and 10 is complete control
  Barnyardgrass plant response rating: 0
bamyardgrass; Rate 62 g/ha, Postemergence (flood test species), scale of 0 to 10 where 0 is no effect and 10 is complete control
  Barnyardgrass plant response rating: 0
bamyardgrass; Rate 125 g/ha, Postemergence section (flood test species), scale 0 to 10, 0 is no effect, 10 is complete control
  Barnyardgrass plant response rating: 0
Purple nutsedge; [12]
  Nutsedge plant response rating: 0
Purple nutsedge; [13]
  Nutsedge plant response rating: 0
Purple nutsedge; [14]
  Plant response rating, Nutsedge: 0
Purple nutsedge; [15]
  Plant response rating, Nutsedge: 0
Purple nutsedge; [16]
  Nutsedge plant response rating: 0
Purple nutsedge; [17]
  Nutsedge plant response rating: 0
Purple nutsedge; [11]
  Nutsedge plant response rating: 0

## CC(C)N(C(=O)n1oc(=O)n(C(C)C(=O)N(C)C)c1=O)c1ccc(F)cc1 (stereo not shown) [Compound 478]
bedstraw; [15]
  Plant response rating, Bedstraw: 8
bedstraw; [16]
  Bedstraw plant response rating: 8
bedstraw; [3]
  Bedstraw plant response rating: 0
bedstraw; [11]
  Bedstraw plant response rating: 0
crabgrass; [12]
  Crabgrass plant response rating: 8
crabgrass; [13]
  Crabgrass plant response rating: 9
crabgrass; [8]
  Plant response rating, Crabgrass: 8
crabgrass; [15]
  Plant response rating, Crabgrass: 9
crabgrass; [16]
  Crabgrass plant response rating: 10
crabgrass; [17]
  Crabgrass plant response rating: 10
crabgrass; [3]
  Crabgrass plant response rating: 2
crabgrass; [11]
  Crabgrass plant response rating: 3
bamyardgrass; Rate 62 g/ha, flood test species, Pre-emergence, visual evaluation after twelve to sixteen days
  Plant response rating, Barnyardgrass (0 to 10 scale, 0 is no effect, 10 is complete control): 0
bamyardgrass; [18]
  Barnyardgrass plant response rating (0 to 10 scale, 0 is no effect, 10 is complete control): 0
bamyardgrass; [19]
  Barnyardgrass plant response rating: 0
bamyardgrass; [9]
  Barnyardgrass plant response rating: 0
Purple nutsedge; [12]
  Nutsedge plant response rating: 0
Purple nutsedge; [8]
  Plant response rating, Nutsedge: 0
Purple nutsedge; [15]
  Plant response rating, Nutsedge: 0
Purple nutsedge; [16]
  Nutsedge plant response rating: 0
Purple nutsedge; [17]
  Nutsedge plant response rating: 3
Purple nutsedge; [3]
  Nutsedge plant response rating: 0
Purple nutsedge; [11]
  Nutsedge plant response rating: 0

## CCOP(=O)(OCC)C(C)n1c(=O)on(C(=O)N(c2ccc(F)cc2)C(C)C)c1=O (stereo not shown) [Compound 617]
bedstraw; [15]
  Bedstraw plant response rating: 0
bedstraw; [20]
  Plant response rating, Bedstraw: 0
bedstraw; [2]
  Bedstraw plant response rating: 0
bedstraw; [21]
  Plant response rating, Bedstraw: 0
crabgrass; [22]
  Plant response rating, Crabgrass: 0
crabgrass; Postemergence, Rate 250 g/ha, scale of 0 to 10, 0 is no effect, 10 is complete control
  Crabgrass plant response rating: 2
crabgrass; [13]
  Plant response rating, Crabgrass: 0
crabgrass; [23]
  Crabgrass plant response rating: 7
crabgrass; [20]
  Plant response rating, Crabgrass: 5
crabgrass; [2]
  Plant response rating, Crabgrass: 8
crabgrass; [21]
  Plant response rating, Crabgrass: 8
bamyardgrass; Pre-emergence, Rate 1000 g/ha, scale 0 to 10 (0 no effect, 10 complete control)
  Barnyardgrass plant response rating: 0
bamyardgrass; [18]
  Barnyardgrass plant response rating (0 to 10 scale, 0 is no effect, 10 is complete control): 0
bamyardgrass; [19]
  Barnyardgrass plant response rating: 0
bamyardgrass; Rate 500 g/ha, Pre-emergence section of Table B, 0 to 10 scale (0 no effect, 10 complete control)
  Barnyardgrass plant response rating: 0
Purple nutsedge; [22]
  Plant response rating, Nutsedge: 0
Purple nutsedge; [13]
  Plant response rating, Nutsedge: 0
Purple nutsedge; [23]
  Nutsedge plant response rating: 0
Purple nutsedge; [15]
  Nutsedge plant response rating: 0
Purple nutsedge; [20]
  Plant response rating, Nutsedge: 0
Purple nutsedge; [2]
  Plant response rating, Nutsedge: 5
Purple nutsedge; [21]
  Plant response rating, Nutsedge: 8
